Data from patent US8785489B2, “Heteroaryl substituted indole compounds useful as MMP-13 inhibitors” (Boehringer Ingelheim International GmbH, priority 2008, dated 2014).

What follows are molecules tested against MMP13 (Homo sapiens (Human), UniProt P45452) (assay: EnzoLyte 520 Generic MMP Assay Kit, 5-FAM/QXL 520 FRET peptide substrate).
Type: biochemical
Description: The EnzoLyte™ 520 Generic MMP Assay Kit (AnaSpec Inc.) can detect the activity of several MMPs including MMP-1, 2, 3, 7, 8, 9, 13, and 14. This kit uses a 5-FAM/QXL™ 520 fluorescence resonance energy transfer (FRET) peptide as an MMP substrate. In the intact FRET peptide, the fluorescence of 5-FAM is quenched by QXL™ 520. Upon cleavage into two separate fragments by MMPs, the fluorescence of 5-FAM is recovered, and can be monitored at excitation/emission wavelengths=490 nm/520 nm. The assays are performed in a convenient 96-well or 384-well microplate format.
Work on `Cc1noc(-c2cc3cc(-c4cc(C(=O)NCc5ccoc5)nn4C)ccc3[nH]2)n1` yielded an IC50 of 45 nM.
`Cc1[nH]c(C(=O)NCc2ccncc2)nc1-c1ccc2[nH]c(-c3nc(C4CC4)no3)cc2c1` gave an IC50 of 6 nM.
Work on `Cc1noc(-c2cc3cc(-c4nc(C(=O)N5CCCCC5)[nH]c4C)ccc3[nH]2)n1` yielded an IC50 of 64 nM.
With `Cc1cc(-c2cc3cc(-c4cc(C(=O)NCc5ccc(C(=O)O)cc5)nn4C)ccc3[nH]2)ccc1F` the IC50 was 30 nM.
Molecule `CCOC(=O)c1cc2nc(-c3nc(C(=O)NCc4ccncc4)[nH]c3C)ccc2[nH]1` has an IC50 of 95 nM.
`Cc1noc(-c2cc3cc(-c4nc(C(=O)NCc5cccnc5)[nH]c4C)ccc3[nH]2)n1` was tested, and the IC50 was 0.6 nM.
`Cc1noc(-c2cc3cc(-c4cc(C(=O)NCc5cccs5)nn4C)ccc3[nH]2)n1` was tested, and the IC50 was 44 nM.
`Cc1noc(-c2cc3cc(-c4nc(C(=O)NCC5CCCO5)[nH]c4C)ccc3[nH]2)n1` (stereo not drawn) [5-methyl-4-[2-(3-methyl-1,2,4-oxadiazol-5-yl)-1H-indol-5-yl]-N-(tetrahydrofuran-2-ylmethyl)-1H-imidazole-2-carboxamide] showed an IC50 of 3 nM.
For `CCOC(=O)c1cc2cc(-c3nc(C(=O)NCc4ccncc4)[nH]c3C)ncc2[nH]1`, the IC50 was 7 nM.
Molecule `Cc1noc(-c2cc3cc(-c4nc(C(=O)NCC5CCOCC5)[nH]c4C)ccc3[nH]2)n1` [5-methyl-4-[2-(3-methyl-1,2,4-oxadiazol-5-yl)-1H-indol-5-yl]-N-(tetrahydro-2H-pyran-4-ylmethyl)-1H-imidazole-2-carboxamide] has an IC50 of 1.1 nM.
Work on `Cc1noc(-c2cc3cc(-c4nc(C(=O)NCc5ccc(C#N)cc5)[nH]c4C)ccc3[nH]2)n1` yielded an IC50 of 2 nM.
In the case of `Cc1noc(-c2cc3cc(-c4nc(C(=O)NCc5nnc[nH]5)[nH]c4C)ccc3[nH]2)n1`, the IC50 is reported as 6 nM.
`Cc1noc(-c2cc3cc(-c4cc(C(=O)NCc5ccn(C)n5)nn4C)ccc3[nH]2)n1` [1-methyl-5-[2-(3-methyl-1,2,4-oxadiazol-5-yl)-1H-indol-5-yl]-N-[(1-methyl-1H-pyrazol-3-yl)methyl]-1H-pyrazole-3-carboxamide] was tested, and the IC50 was 185 nM.
In the case of `Cc1noc(-c2cc3cc(-c4nc(C(=O)NC[C@@H]5CCCO5)[nH]c4C)ccc3[nH]2)n1` [5-methyl-4-[2-(3-methyl-1,2,4-oxadiazol-5-yl)-1H-indol-5-yl]-N-[(2S)-tetrahydrofuran-2-ylmethyl]-1H-imidazole-2-carboxamide], the IC50 is reported as 4 nM.
`Cc1noc(-c2cc3cc(-c4nc(C(=O)NCc5cnn(C)c5)[nH]c4C)ccc3[nH]2)n1` [5-methyl-4-[2-(3-methyl-1,2,4-oxadiazol-5-yl)-1H-indol-5-yl]-N-[(1-methyl-1H-pyrazol-4-yl)methyl]-1H-imidazole-2-carboxamide] was tested, and the IC50 was 0.4 nM.
In the case of `Cc1noc(-c2cc3cc(-c4nc(C(=O)NCCN5CCOCC5)[nH]c4C)ccc3[nH]2)n1`, the IC50 is reported as 5 nM.
`Cc1noc(-c2cc3cc(-c4nc(C(=O)NCc5ccccn5)[nH]c4C)ccc3[nH]2)n1` showed an IC50 of 3 nM.
With `CCOC(=O)c1cc2cc(-c3cc(C(=O)NCc4ccc(=O)[nH]c4)nn3C)ccc2[nH]1` the IC50 was 125 nM.
With `Cc1noc(-c2cc3cc(-c4cc(C(=O)NCc5ccc(C(=O)O)cc5)nn4C)ccc3[nH]2)n1` the IC50 was 0.2 nM.
With `Cc1noc(-c2cc3cc(-c4ccnc(C(=O)NCc5ccc(C(=O)O)cc5)c4)ccc3[nH]2)n1` the IC50 was 0.2 nM.
With `Cc1noc(-c2cc3cc(-c4nc(C(=O)NC5CCOCC5)[nH]c4C)ccc3[nH]2)n1` the IC50 was 106 nM.
In the case of `Cc1noc(-c2cc3cc(-c4cc(C(=O)NCc5ccc(F)cc5)nn4C)ccc3[nH]2)n1`, the IC50 is reported as 26 nM.
Molecule `Cn1cc(-c2cc3cc(-c4cc(C(=O)NCc5ccc(C(=O)O)cc5)nn4C)ccc3[nH]2)cn1` has an IC50 of 1.5 nM.
`Cc1noc(-c2cc3cc(-c4nc(C(=O)NCC5CCCCO5)[nH]c4C)ccc3[nH]2)n1` (stereo not drawn) gave an IC50 of 5 nM.
Molecule `Cc1noc(-c2cc3cc(-c4cc(C(=O)NCc5ccncc5)ncc4C)ccc3[nH]2)n1` has an IC50 of 14 nM.
`Cc1noc(-c2cc3cc(-c4nc(C(=O)N5CCCC5)[nH]c4C)ccc3[nH]2)n1` gave an IC50 of 113 nM.
Molecule `CCOC(=O)c1cc2cc(-c3cc(C(=O)NCc4ccc(CC(=O)O)cc4)nn3C)ccc2[nH]1` has an IC50 of 3 nM.
With `CCOC(=O)c1cc2cc(-c3ccnc(C(=O)NCc4ccncc4)c3)ccc2[nH]1` [5-{2-[(Pyridin-4-ylmethyl)-carbamoyl]-pyridin-4-yl}-1H-indole-2-carboxylic acid ethyl ester] the IC50 was 94 nM.
`COC(=O)c1cc(-c2ccc3[nH]c(-c4nc(C)no4)cc3c2)n(C)n1` showed an IC50 of 190 nM.
`Cn1nc(C(=O)NCc2ccc(C(=O)O)cc2)cc1-c1ccc2[nH]c(-c3ncccn3)cc2c1` showed an IC50 of 1.6 nM.
`Cc1noc(-c2cc3cc(-c4nc(C(=O)NC(C)c5cccs5)[nH]c4C)ccc3[nH]2)n1` (stereo not drawn) was tested, and the IC50 was 15 nM.
Molecule `Cc1noc(-c2cc3cc(-c4cc(C(=O)NCc5cncs5)nn4C)ccc3[nH]2)n1` [1-methyl-5-[2-(3-methyl-1,2,4-oxadiazol-5-yl)-1H-indol-5-yl]-N-(1,3-thiazol-5-ylmethyl)-1H-pyrazole-3-carboxamide] has an IC50 of 10 nM.
For `Cc1noc(-c2cc3cc(-c4cc(C(=O)NCC5CCOCC5)nn4C)ccc3[nH]2)n1` [1-methyl-5-[2-(3-methyl-1,2,4-oxadiazol-5-yl)-1H-indol-5-yl]-N-(tetrahydro-2H-pyran-4-ylmethyl)-1H-pyrazole-3-carboxamide], the IC50 was 116 nM.
`Cc1noc(-c2cc3cc(-c4cc(C(=O)NCc5ccnc(Cl)c5)nn4C)ccc3[nH]2)n1` [N-[(2-chloropyridin-4-yl)methyl]-1-methyl-5-[2-(3-methyl-1,2,4-oxadiazol-5-yl)-1H-indol-5-yl]-1H-pyrazole-3-carboxamide] was tested, and the IC50 was 4 nM.
For `Cc1cc(Cn2cc(-c3ccnc(C(=O)NCc4ccc(C(=O)O)cc4)c3)cn2)ccc1F`, the IC50 was 130 nM.
Molecule `Cc1noc(-c2cc3cc(-c4cc(C(=O)NCc5ccco5)nn4C)ccc3[nH]2)n1` has an IC50 of 27 nM.
Work on `Cc1noc(-c2cc3cc(-c4cc(C(=O)NCc5cc(C)on5)nn4C)ccc3[nH]2)n1` [1-methyl-N-[(5-methylisoxazol-3-yl)methyl]-5-[2-(3-methyl-1,2,4-oxadiazol-5-yl)-1H-indol-5-yl]-1H-pyrazole-3-carboxamide] yielded an IC50 of 24 nM.
In the case of `Cn1nc(C(=O)NCc2ccc(C(=O)O)cc2)cc1-c1ccc2[nH]c(-c3ccc(F)nc3)cc2c1`, the IC50 is reported as 48 nM.
`Cc1noc(-c2cc3cc(-c4nc(C(=O)NCc5ccc(N)nc5)[nH]c4C)ccc3[nH]2)n1` was tested, and the IC50 was 2 nM.
For `Cc1noc(-c2cc3cc(-c4nc(C(=O)NCc5ccnc(C#N)c5)[nH]c4C)ccc3[nH]2)n1` [N-[(2-cyanopyridin-4-yl)methyl]-5-methyl-4-[2-(3-methyl-1,2,4-oxadiazol-5-yl)-1H-indol-5-yl]-1H-imidazole-2-carboxamide], the IC50 was 0.95 nM.
`Cc1noc(-c2cc3cc(-c4nc(C(=O)NCc5ccncn5)[nH]c4C)ccc3[nH]2)n1` was tested, and the IC50 was 0.6 nM.
For `Cc1noc(-c2cc3cc(-c4nc(C(=O)NCC5COCCO5)[nH]c4C)ccc3[nH]2)n1` (stereo not drawn), the IC50 was 1.9 nM.
With `Cc1noc(-c2cc3cc(-c4cc(C(=O)NCc5nccs5)nn4C)ccc3[nH]2)n1` [1-methyl-5-[2-(3-methyl-1,2,4-oxadiazol-5-yl)-1H-indol-5-yl]-N-(1,3-thiazol-2-ylmethyl)-1H-pyrazole-3-carboxamide] the IC50 was 73 nM.
`Cc1noc(-c2cc3cc(-c4cc(C(=O)NCc5ccc(C#N)cc5)nn4C)ccc3[nH]2)n1` was tested, and the IC50 was 10 nM.
`Cc1noc(-c2cc3cc(-c4nc(C(=O)NC5CC5)[nH]c4C)ccc3[nH]2)n1` [N-cyclopropyl-5-methyl-4-[2-(3-methyl-1,2,4-oxadiazol-5-yl)-1H-indol-5-yl]-1H-imidazole-2-carboxamide] showed an IC50 of 26 nM.
In the case of `Cc1noc(-c2cc3cc(-c4cc(C(=O)NCc5ccc(C(=O)O)cc5)ncc4C)ccc3[nH]2)n1`, the IC50 is reported as 0.2 nM.
In the case of `Cc1noc(-c2cc3cc(-c4nc(C(=O)NC[C@H]5CCCO5)[nH]c4C)ccc3[nH]2)n1` [5-methyl-4-[2-(3-methyl-1,2,4-oxadiazol-5-yl)-1H-indol-5-yl]-N-[(2R)-tetrahydrofuran-2-ylmethyl]-1H-imidazole-2-carboxamide], the IC50 is reported as 5 nM.
In the case of `Cc1noc(-c2cc3cc(-c4ccnc(C(=O)NCc5ccncc5)c4)ccc3[nH]2)n1`, the IC50 is reported as 12 nM.
`Cc1noc(-c2cc3cc(-c4nc(C(=O)NCc5nccs5)[nH]c4C)ccc3[nH]2)n1` [5-methyl-4-[2-(3-methyl-1,2,4-oxadiazol-5-yl)-1H-indol-5-yl]-N-(1,3-thiazol-2-ylmethyl)-1H-imidazole-2-carboxamide] gave an IC50 of 2 nM.
`Cc1cc(Cn2cc(-c3nc(C(=O)NCc4ccc(C(=O)O)cc4)[nH]c3C)cn2)ccc1F` gave an IC50 of 88 nM.
`Cc1noc(-c2cc3cc(-c4nc(C(=O)NCc5cc(C)on5)[nH]c4C)ccc3[nH]2)n1` [5-methyl-N-[(5-methylisoxazol-3-yl)methyl]-4-[2-(3-methyl-1,2,4-oxadiazol-5-yl)-1H-indol-5-yl]-1H-imidazole-2-carboxamide] showed an IC50 of 0.9 nM.
For `CCOC(=O)c1cc2cc(-c3nc(C(=O)NCc4ccncc4)[nH]c3C)cnc2[nH]1`, the IC50 was 49 nM.
`Cc1noc(-c2cc3cc(-c4nc(C(=O)NCc5nnc(C)[nH]5)[nH]c4C)ccc3[nH]2)n1` was tested, and the IC50 was 17 nM.
`Cc1noc(-c2cc3cc(-c4nc(C(=O)NCc5ccnnc5)[nH]c4C)ccc3[nH]2)n1` showed an IC50 of 1.2 nM.
For `Cc1cc(-c2cc3cc(-c4cc(C(=O)NCc5ccc(C(=O)O)cc5)nn4C)ccc3[nH]2)cc(F)n1`, the IC50 was 53 nM.
`Cn1nc(C(=O)NCc2ccc(C(=O)O)cc2)cc1-c1ccc2[nH]c(C3=NCCO3)cc2c1` was tested, and the IC50 was 43 nM.
`Cc1nc(-c2cc3cc(-c4ccnc(C(=O)NCc5ccncc5)c4)ccc3[nH]2)no1` was tested, and the IC50 was 38 nM.
In the case of `Cc1noc(-c2cc3cc(-c4nc(C(=O)NCc5nnc6n5CCC6)[nH]c4C)ccc3[nH]2)n1`, the IC50 is reported as 4 nM.
For `CCOC(=O)c1cc2cc(-c3ccnc(C(=O)NCc4ccc(=O)[nH]c4)c3)ccc2[nH]1`, the IC50 was 35 nM.
Work on `Cc1noc(-c2cc3cc(-c4nc(C(=O)NCc5ccccc5)[nH]c4C)ccc3[nH]2)n1` [N-benzyl-5-methyl-4-[2-(3-methyl-1,2,4-oxadiazol-5-yl)-1H-indol-5-yl]-1H-imidazole-2-carboxamide] yielded an IC50 of 2 nM.
